In brackets after ≈: the same amount, converted by molar mass. Several values for one entry are separate records, joined by “and”; a condition that tells them apart may be missing. Equal entries are not always repeated.
What was measured:
human red blood cells = experiment: Hemolytic activity (MHC50/HC50), 18 h microtiter dilution; assay type: cell-based; conditions: for Hemolytic activity Fold (fold improvement in HC50 compared to that of D4): relative to D4
Procedure: Hemoglobin release was determined spectrophotometrically at 570 nm. […] MHC50 was determined by plot the concentration-lysis format.

Gram-negative bacteria = experiment: Antibacterial activity (MIC), microtiter dilution; assay type: cell-based
Procedure: MICs were determined by a standard microtiter dilution method in Mueller Hinton Broth (MHB). Serial dilutions of the 10× compound were added to the microtiter plates in a volume of 10 μL followed by 90 μL of bacteria for an inoculum of 5×10^5 colony-forming units (CFU)/mL. The plates were incubated at 37° C. for 24 h, and the MICs were determined as the lowest peptide concentration that inhibited growth. […]
Alternatively; minimal inhibitory concentrations were determined using a standard microtiter dilution method in a Mueller-Hinton (MH) medium. Briefly, cells were grown overnight at 37° C. in MH broth and diluted in the same medium. Serial dilutions of the peptides were added to the microtiter plates in a volume of 100 μl followed by 10 μl of bacteria for an initial cell concentration of 1×10^5 CFU/ml. Plates were incubated at 37° C. for 24 hours and MICs determined as the lowest peptide concentration that inhibited growth.

[1] = test system: Aspergillus nidulans (AZN 2867); experiment: Antifungal activity (MIC50/MIC90); assay type: cell-based
From the text: (§1) The filamentous fungal and yeast strains used in this study were either purchased from American Type Culture Collection, Manassas, Va. (ATCC) or were generous gifts from various institutions: Aspergillus nidulans (AZN 2867), Absidia corymbifera (clinical isolate), Rhizomucor spp. (clinical isolate), Rhizopus microsporus (clinical isolate), Rhizopus oryzae (AZN 8892), Scedosporium prolificans (clinical isolate), Candida albicans (ATCC 24433).
(§2) Fungal spores (final concentration 10^4 spores/ml) were suspended in ½ Potato Dextrose Broth (Difco), and the yeast strains were suspended at a starting A600=0.001 in the yeast complete medium YPG (1% yeast extract, 1% peptone, 2% glucose). The medium was supplemented with tetracycline (10 μg/ml) and cefotaxim (100 μg/ml), and dispensed by aliquots of 80 μl into wells of a microplate containing 20 μl of either water or the sample to be analyzed. Growth of fungi and yeasts was evaluated after 24 h at 30° C. by light microscopy and after 48 h by measuring the culture absorbance at 595 nm using a microplate reader. Under conditions where the antifungal assay was performed in the presence of salt, the ½ Potato Dextrose Broth medium was prepared in phosphate-buffered saline, 137 mM NaCl.
(§3) The procedure used for the determination of the minimal inhibitory concentration (MIC) was identical to that for the antifungal assay. The MIC values are expressed as the lowest peptide concentration that causes 90% or 50% growth inhibition. The fungicidal effects of the synthetic peptides in the MIC assay were verified by reinoculation of the yeasts in potato dextrose broth at the end of the incubation time.

[2] = test system: Candida albicans (ATCC 24433); experiment: Antifungal activity (MIC50/MIC90); assay type: cell-based
From the text: as §1, §2, §3

[3] = test system: Scedosporium prolificans (clinical isolate); experiment: Antifungal activity (MIC50/MIC90); assay type: cell-based
From the text: as §1, §2, §3

Interleukin-6 (IL-6) = experiment: Cytokine assay, stimulation of peripheral blood mononuclear cells, ELISA; assay type: cell-based, human
Procedure: (§4) Isolation of peripheral blood mononuclear cells (PBMCs) from 5 healthy individuals was performed as described elsewhere (108). Briefly, venous blood was drawn into 10 ml tubes containing 0.2 mg of EDTA (Monoject's-Hertogenbosch, NL). The PBMC fraction was obtained by density centrifugation of blood using Ficoll-Paque (Pharmacia Biotech AB, Sweden). […] The PBMCs were incubated in 96-well tissue culture plates (Greiner, Alphen, NL) at a concentration of 5×10^5 cells per well in a total volume of 200 μl, in the presence or absence of a set of stimuli in different experiments. […] After 24 h of incubation, the supernatants were collected and stored at -80° C. until analysis. Interleukin-6 (IL-6) and tumor necrosis factor (TNF) were measured by ELISA according to the manufacturer's protocol ([…], CLB, Amsterdam, NL). […] Agilent Technologies) with a linear AB gradient (0.2% acetonitrile/min) at a flow rate of 2 ml/min, where mobile phase A was 0.1% aqueous TFA in water and B was 0.1% TFA in acetonitrile. The purity of peptides was verified by analytical RP-HPLC. The peptides were further characterized by electrospray mass spectrometry and amino acid analysis.

[4] = test system: tumor necrosis factor (TNF); experiment: as above; assay type: cell-based, human
Procedure: as §4

[5] = test system: Absidia corymbifera (clinical isolate); conditions: mean of 2 sets
[6] = test system: Rhizomucor spp. (clinical isolate)
[7] = test system: Rhizopus microsporus (clinical isolate)
[8] = test system: Rhizopus oryzae (AZN 8892)
[9] = peptide concentration 0.01 μg/ml
[10] = peptide concentration 100 μg/ml

CC[C@@H](C)[C@@H](NC(=O)[C@@H](C)NC(=O)[C@@H](CCCCN)NC(=O)[C@@H](CC(C)C)NC(=O)[C@@H](C)NC(=O)[C@H](NC(=O)[C@@H](Cc1c[nH]cn1)NC(=O)[C@@H](CC(C)C)NC(=O)[C@H](NC(=O)[C@H](NC(=O)[C@@H](CCCCN)NC(=O)[C@@H](CCCCN)NC(=O)[C@@H](C)NC(=O)[C@@H](CO)NC(=O)[C@@H](CCCCN)NC(=O)[C@@H](Cc1ccccc1)NC(=O)[C@H](NC(=O)[C@@H](CCCCN)NC(=O)[C@@H](CC(C)C)NC(=O)[C@@H](Cc1ccccc1)NC(=O)[C@@H](CO)NC(=O)[C@@H](CCCCN)NC(=O)[C@@H](Cc1c[nH]c2ccccc12)NC(=O)[C@@H](CCCCN)NC(C)=O)[C@H](C)O)[C@H](C)O)C(C)C)[C@H](C)O)C(=O)N[C@H](CO)C(=O)N[C@H](CO)C(N)=O [D1]
Hemolytic activity HC50 (human red blood cells; further experiments, 50% hemolysis of human red blood cells after 18 h): 421.5 µg/mL | Hemolytic activity Fold (fold improvement in HC50 compared to that of D4) (human red blood cells; further experiments): 120 fold | Hemolytic activity HC50 (human red blood cells; peptide concentration that produces 50% hemolysis of human red blood cells after 18 h, standard microtiter dilution method): 1000 µg/mL and 1000.0 µg/mL | Hemolytic activity Fold (fold improvement in HC50 compared to that of D4) (human red blood cells): 286 fold | MIC E. coli C498 UB1005 (Gram-negative bacteria; E. coli C498 UB1005, MH medium, 37° C., 24 h): 2 µg/mL (≈ 0.669 µM) | MIC E. coli C857 DH5a (Gram-negative bacteria; E. coli C857 DH5a, MH medium, 37° C., 24 h): 2 µg/mL (≈ 0.669 µM) | MIC E. coli UB1005 (Gram-negative bacteria; E. coli UB1005, MH medium, 37° C., 24 h): 4 µg/mL (≈ 1.34 µM) | MIC P. aeruginosa PAO1 (Gram-negative bacteria; P. aeruginosa PAO1, Mueller-Hinton medium, 37° C., 24 h, four sets of determinations): 8 µg/mL (≈ 2.68 µM) | MIC S. ryphimurium 14208S (Gram-negative bacteria; S. ryphimurium 14208S, MH medium, 37° C., 24 h): 32 µg/mL (≈ 10.7 µM) | MIC S. ryphimurium C587 14208S (Gram-negative bacteria; S. ryphimurium C587 14208S, MH medium, 37° C., 24 h): 4 µg/mL (≈ 1.34 µM) | Fold improvement in antimicrobial activity (geometric mean data) compared to that of D4, Gram-negative bacteria (Gram-negative bacteria; relative to D4): 4.5 fold | MIC GM (geometric mean of the MIC values), Gram-negative bacteria (Gram-negative bacteria; six Gram-negative strains, 128 μg/mL used where no activity at 64 μg/mL): 5.0 µg/mL | A. nidulans MIC50 ([1]; inhibits 50% of fungal growth): 9.4 µg/mL | A. nidulans MIC90 ([1]; inhibits 90% of fungal growth): 50.0 µg/mL | C. albicans MIC50 ([2]; inhibits 50% of fungal growth): 50.0 µg/mL | C. albicans MIC90 ([2]; inhibits 90% of fungal growth): 50.0 µg/mL | S. prolificans MIC50 ([3]; inhibits 50% of fungal growth): 50.0 µg/mL | S. prolificans MIC90 ([3]; inhibits 90% of fungal growth): 50.0 µg/mL | IL-6 Exp 1 (Interleukin-6 (IL-6); [9]): <3 pg/mL | IL-6 Exp 2 (Interleukin-6 (IL-6); peptide concentration 0.01 μg/ml, Exp 2): <3 pg/mL | IL-6 Exp 1 (Interleukin-6 (IL-6); [10]): <3 pg/mL | TNF Exp 1 [4, 9]: <0.015 ng/mL | TNF Exp 2 [4, 9]: <0.015 ng/mL | TNF Exp 1 ([4]; peptide concentration 1 μg/ml): <0.015 ng/mL | TNF Exp 2 ([4]; peptide concentration 1 μg/ml): <0.015 ng/mL | TNF Exp 1 [4, 10]: <0.015 ng/mL | TNF Exp 2 [4, 10]: <0.015 ng/mL | MIC B. subtilus C626 (Gram-positive bacteria; B. subtilus C626, MH medium, 37° C., 24 h): 32 µg/mL (≈ 10.7 µM) | MIC B. subtilus C971 ATCC6633 (Gram-positive bacteria; B. subtilus C971 ATCC6633, MH medium, 37° C., 24 h): 2 µg/mL (≈ 0.669 µM) | MIC E. jaecalis C625 (Gram-positive bacteria; E. jaecalis C625, MH medium, 37° C., 24 h): 32 µg/mL (≈ 10.7 µM) | MIC S. aureus C622 ATCC3923 (Gram-positive bacteria; S. aureus C622 ATCC3923, MH medium, 37° C., 24 h): 64 µg/mL (≈ 21.4 µM) | MIC S. aureus K147 (Gram-positive bacteria; S. aureus K147, MH medium, 37° C., 24 h): 64 µg/mL (≈ 21.4 µM) | MIC S. epidermidis C623 (Gram-positive bacteria; S. epidermidis C623, MH medium, 37° C., 24 h): 4 µg/mL (≈ 1.34 µM) | Fold improvement in antimicrobial activity (geometric mean data) compared to that of D4, Gram-positive bacteria (Gram-positive bacteria; relative to D4): 0.9 fold | MIC GM (geometric mean of the MIC values), Gram-positive bacteria (Gram-positive bacteria; six Gram-positive strains): 18.0 µg/mL | GM (geometric mean of the MIC50 values), Zygomycota fungi (Zygomycota fungi; four Zygomycota strains): 9.1 µg/mL | Fold improvement in antifungal activity (geometric mean data) compared to that of D4, Zygomycota fungi (Zygomycota fungi; relative to D4): 5.5 fold | fold less active than D4 (Ascomycota fungi; Ascomycota fungi): 5 fold | Fold improvement in antifungal activity (geometric mean data) compared to that of D4, Ascomycota fungi (Ascomycota fungi; relative to D4): 0.2 fold | GM (geometric mean of the MIC50 values), Ascomycota fungi (Ascomycota fungi; three Ascomycota strains): 28.6 µg/mL | A. corymbifera MIC50 ([5]; peptide concentration that inhibits 50% of fungal growth): 12.5 µg/mL | A. corymbifera MIC90 ([5]; peptide concentration that inhibits 90% of fungal growth): 12.5 µg/mL | Rhizomucor spp. MIC50 ([6]; inhibits 50% of fungal growth): 4.7 µg/mL | Rhizomucor spp. MIC90 ([6]; inhibits 90% of fungal growth): 6.3 µg/mL | R. micosporus MIC50 ([7]; inhibits 50% of fungal growth): 6.3 µg/mL | R. micosporus MIC90 ([7]; inhibits 90% of fungal growth): 12.5 µg/mL | R. oryzae MIC50 ([8]; inhibits 50% of fungal growth): 18.8 µg/mL | R. oryzae MIC90 ([8]; inhibits 90% of fungal growth): 25.0 µg/mL

— patent US20100099614A1, “Antimicrobial Peptides and Methods of Use” (priority 2008, published 2010)
